For series [1], the system named is RSV (Long strain). Briefly: CPE assay, RSV-Long in Hep-2 cells. Format: cell-based, respiratory syncytial virus.
The test system of series [2] is RSV B. Briefly: CPE assay, RSV-B in Hep-2 cells. Format: cell-based, respiratory syncytial virus.
For series [3], the system named is Influenza A-Shangdong/09/93 (H3N2). The experiment in a line: CPE assay, influenza A specificity. Format: cell-based, influenza type A. Conditions: CPE assay with MDCK or Vero cells. As for the experimental part: (§1) To determine whether the fractions are specific RSV inhibitors rather than general antiviral agents, the inventors tested them against influenza type A/Shangdong/09/93 (H3N2), herpes simplex type 1 (MacItyre), and herpes simplex type 2 (MS) using the CPE assay system.
(§2) CJ4-16-4 was tested using influenza type A, herpes simplex virus type 1, and herpes simplex virus type 2 using the CPE assay with MDCK or Vero cells.

Series [4] relates to Herpes simplex virus type 1 (MacIntyre strain). The experiment in a line: CPE assay, HSV-1 specificity. Format: cell-based. Conditions: CPE assay with MDCK or Vero cells. The method, then:
as §1, §2

For series [5], the system named is Herpes simplex virus type 2 (MS-strain). The experiment in a line: CPE assay, HSV-2 specificity. Format: cell-based. The conditions noted are these: CPE assay with MDCK or Vero cells. The method, then: as §1, §2
In series [6] the test system is RSV-Long (Cotton Rat adapted strain). Briefly: CPE assay, RSV-Long cotton rat adapted strain. Format: cell-based, respiratory syncytial virus. The conditions noted are these: Hep-2 cells, CPE assay.
Series [7] has as its system MDCK cells. Briefly: Cytotoxicity in MDCK cells. Conditions: isolated compounds.
Series [8] concerns RSV-A2. Briefly: CPE assay, RSV-A2 in Hep-2 cells. Conditions: Hep-2 cells, CPE assay.
Method: The cell line was propagated in MEM supplemented with 10% heat-inactivated fetal bovine serum (FBS) containing 100 μg/ml of antibiotics (streptomycin/penicillin). […] The overnight medium (MEM containing 10% FBS) was removed, and wells were rinsed twice with 1× phosphate buffer saline (PBS, 200 μl) before adding 10×TCID50 of RSV suspension in fresh medium (MEM plus 2% FBS) to each well, except for cell only wells. […] CellTiter 96 Aqueous Non-Radioactive Cell Proliferation Assay (Promega) was used to monitor the antiviral activity following the manufacturer's instruction. After incubation, the cells were rinsed twice with 200 μl of 1×PBS prior to the addition of 100 μl of fresh medium (MEM plus 10% FBS). […] The extent of cell viability was measured at 490 nm using an ELISA reader, and the absorbance was used to calculate percent inhibition. Antiviral activity of each EB fraction or ribavirin is expressed as IC50, which represents the concentration of the test substance required to reduce the virus infection (as measured by the destruction of the host cells) by 50%.
Hep-2 cells were used in the CPE assay to determine anti-RSV properties.
Series [9] relates to Vero cells. Briefly: Cytotoxicity (MTS) in uninfected Vero cells. Conditions: isolated compounds.
Series [10] has as its system Hep-2 cells. The experiment in a line: Cytotoxicity (MTS) in uninfected Hep-2 cells. The conditions noted are these: isolated compounds.
Series [11] concerns RSV-Long. Briefly: Plaque reduction assay (PRA). Conditions: human respiratory syncytial virus, HEp-2; Table 3, plaque reduction assay. Format: cell-based. As for the experimental part: The materials and methods used for PRA are as follows. […] The overlay was prepared by mixing 1 part of 1.2% SeaPlaque and 1 part 2×MEM containing 4% FBS, plus appropriate concentrations of each EB fraction or ribavirin. Each concentration of the EB fraction or ribavirin was tested in duplicate wells. After 7 days, the agarose was carefully removed and cells were rinsed twice with 2 ml of PBS. The cell monolayer was fixed using 0.2% crystal violet in 20% methanol at room temperature. After 30 minutes, the fixer was removed by washing with deionized water, and the plates were air-dried prior to counting plaques. The number of plaques obtained for each fraction or ribavirin was expressed as a percentage of the control. The percentage values obtained were used to calculate IC50 values.
A general note: Plaque reduction counts the foci of infection that form in a cell layer.

The test system of series [12] is RSV. The experiment in a line: Viral yield assay (VYA). Format: cell-based, respiratory syncytial virus. The method, then: The materials and methods used for VYA are as follows. […] Each concentration of the test articles or control drug was tested in triplicate wells. […] The aliquots from each of the eight wells of a given column were transferred to the first column of a fresh 96-well monolayer culture of Hep-2 cells. The contents were mixed and serially diluted across the remaining columns of the secondary plate. Each column of the original primary plate was diluted across a separate plate in this manner. The cultures were incubated for 7 additional days, and the end point was monitored by CPE assay as described above.

The subject of series [13] is RSV-Long. The experiment in a line: Time of addition, CPE assay. Format: cell-based, respiratory syncytial virus. The conditions noted are these: human respiratory syncytial virus. As for the experimental part: Determine the Time of Addition for EB Fractions. […] This activity is related to the life cycle of the virus and the step in the cycle where the compounds act. In this example, experiments were performed to investigate the effect of the time of addition of EB fractionated products on anti-RSV activity.
Mechanism of action studies were performed as follows. Mechanism of action studies were performed using CJ4-16-4 in a CPE assay with Hep-2 cells.

Series [14] concerns RSV. Briefly: Limited pretreatment of host cells, CPE assay. Format: cell-based, respiratory syncytial virus. The conditions noted are these: removed before infection. As for the experimental part: A limited pretreatment of host cells with EB fractions was investigated as follows. […] The cells were incubated in fresh medium without the test article. After 7 days, the viral inhibition was evaluated using CPE assay protocol.

The subject of series [15] is RSV-Long. Briefly: Viral RNA analysis (RiboGreen). Conditions: for RNA Concentration: three days. Format: cell-based, respiratory syncytial virus. As for the experimental part:
The method for analysis of viral RNA is as follows. Six well plates were infected with 1 ml stock of RSV-Long (10×TCID50) diluted 1:20 in infection medium (DMEM+2% FBS). The plates were incubated in 37° C. incubators for 60 min, after which the inoculum was removed and the plates were rinsed. […] Each concentration was added in duplicate. […] After three days, the culture supernatants were transferred into clean conical tubes and subjected to centrifugation at low speed to remove cell debris. […] RNA was extracted using a commercial RNA extraction kit purchased from Epicentre Technologies (Madison, WI). The procedure was performed according to the manufacturer's instructions, and samples were stored at −20° C. The level of viral RNA in each sample was determined using the RiboGreen® RNA quantitative kit (Molecular Probes, Eugene, Oreg.) according the manufacturer's instructions.

Series [16] can be described thus: in vitro. Conditions: human.
A short description of series [17]: in vitro. The conditions noted are these: African green monkey.
The test system of series [18] is RSV A2. Briefly: Cotton rat RSV infection model, pulmonary titer.
Method: All groups consisted of four randomly selected cotton rats. All test materials were administered intraperitoneally with once daily dosing. The placebo group was administered distilled water at volumes and schedules identical to the other groups receiving investigational test articles. In general, timing of administration of ribavarin to the ribavarin-treated group paralleled that of the other treatment groups except that initiation of dosing was on Day 1 for Experiments 1 and 2 and Day 0 for Experiment 3. The dose of ribavarin was 90 mg/kg/day in Experiments 1 and 3 and 180 mg/kg/day in Experiment 2. All animals were inoculated intranasally with approximately 100 median cotton rat infectious doses (CRID50) of RSV A2 on Day 0. Experiments were terminated on either Day 3 or 4 post-infection. […] On the day that the experiment was terminated, all CRs were sacrificed using CO2 to asphyxiate the animals. The lungs from the animals were subsequently removed. The lungs of sacrificed animals were removed, rinsed in sterile phosphate-buffered saline (PBS; pH 7.2) and weighed. Each set of lungs was then transpleurally lavaged using 3 ml of 2% FCS-MEM media. The resulting lung fractions were kept on ice until they were assayed for RSV. The lung fractions of animals from each group were tested for the levels of RSV present.
[19] abbreviates: human respiratory syncytial virus, HEp-2, Table 2, extracted fractions, average of two or three experiments.
Setting [20] is: 90 mg/kg/day B.I.D i.p. D0-D3, water, harvest day 4.

Two molecules from US20060020029A1, “Pharmaceutical compositions from ethnobotanicals” (priority 2004, published 2006) can be followed below.

Converted amounts (≈) assume the structure as drawn. “And” between values parts separate entries of the source, which are not always exact repeats. Equal values may be shown once. Read-outs that look alike come from different tables or passages of the source. A value given as a limit tells only on which side of the number the result lay.

In the case of `O=C(/C=C/c1ccc(O)c(O)c1)O[C@H]1[C@H](O)C[C@](O)(C(=O)O)C[C@H]1OC(=O)/C=C/c1ccc(O)c(O)c1` [CJ2-27-4, 4,5-dicaffeoylquinic acid], the “EC50, RSV-Long” value in series [1] (Hep-2 cells, CPE assay) was found to be 0.052 µg/mL (≈ 0.101 µM). In series [2] (Hep-2 cells, CPE assay), the “EC50, RSV-B (Washington)” value worked out at 0.218 µg/mL (≈ 0.422 µM). Further, the “EC50, Influenza A-Shangdong/09/93 (H3N2)” value in series [3] is >50 µg/mL. The “EC50, Herpes simplex virus type 1 (MacIntyre strain)” value in [4] was >50 µg/mL. Also, the “EC50, Herpes simplex virus type 2 (MS-strain)” value in [5] was >50 µg/mL. Also, in [6], the “EC50, RSV-Long (Cotton Rat adapted strain)” value is 5.519 µg/mL (≈ 10.7 µM). Besides, in series [7], the “CC50, MDCK” value was >200 µg/mL. Moreover, the “EC50, RSV-A2” value in series [8] was found to be 0.521 µg/mL (≈ 1.01 µM). Besides, in series [9], the “CC50, Vero” value was >200 µg/mL. Also, the “CC50, Hep 2” value in series [10] was >200 µg/mL.
What is called IC50 is the concentration that gives 50% inhibition. On to `NC(=O)c1ncn([C@@H]2O[C@H](CO)[C@@H](O)[C@H]2O)n1` [Ribavirin], for which the half-maximal inhibitory concentration (IC50) in series [1] (setting [19]) is 3.8 ± 0.2 µg/mL (≈ 15.6 µM); in series [2] (setting [19]), 3.2 ± 0.5 µg/mL (≈ 13.1 µM); in series [11], 3.84 µg/mL (≈ 15.7 µM); in [13] (addition 0 h, 10×TCID50 RSV-Long, Hep-2), 3.6 ± 0.36 µg/mL (≈ 14.7 µM); in series [13] (addition +7 h post-infection), 3.9 ± 0.64 µg/mL (≈ 16 µM); in [13] (addition +26 h post-infection), 4.43 ± 0.88 µg/mL (≈ 18.1 µM). Also, the 50% inhibitory concentration (IC50) is > 50 µg/mL in series [14] (human respiratory syncytial virus, pre-treatment time 4 hrs, read-out: IC50); >50 µg/mL in series [14] (pre-treatment time 0 hrs); >50 µg/mL in series [14] (pre-treatment time 8 hrs); >50 µg/mL in [14] (pre-treatment time 24 hrs). The “Mean Titer” value in [12] (3.1 μg/ml) stood at 3 log 10; in series [12] (25.0 μg/ml), 2 log 10. Besides, the “Reduction of viral titer” value amounted to 1 log10 in [12] (3.1 μg/ml) and 2 log10 in [12] (25.0 μg/ml). For the same molecule, the “RNA Concentration” value in [15] (drug concentration 1 μg/ml) came to 450 ng/mL; in series [15] (drug concentration 20 μg/ml) it was 225 ng/mL. In addition, the “reduction of viral RNA” value in [15] (drug concentration increased from 1 to 20 μg/ml) was determined as 2 fold. Moreover, the CC50 at 7 days is 76.4 ± 4.4 µg/mL (≈ 313 µM) in series [16] and > 100 µg/mL in series [17]. In addition, in series [18] (90 mg/kg/day B.I.D i.p. D0-D3, vs placebo), the Reduction is 2.9 Log 10. For the same molecule, in [18] (setting [20]), the “RSV Pulmonary Titer Mean ± SD” value was determined as 1.5 ± 1.8 log10/g lung. Further, the “RSV Pulmonary Titer in individual CR (A-D)” value in series [18] (setting [20]) was 2.8 log10/g lung and 3.3 log10/g lung and 0 log10/g lung (2×). Also, the “reduction of mean viral titer” value in series [18] (Experiment 1), in series [18] (Experiment 2) and in series [18] (Experiment 3) was 2.5 logs in each case. Also, the “RSV pulmonary Mean Titers ± SD” value in [18] (Experiment 1: 100 mg/kg/day i.p. (ribavirin 90 mg/kg/day), harvest Day 4) stood at 3.1 ± 0.29 log 10; in series [18] (Experiment 2: 100 mg/kg/day i.p. from Day -1 (ribavirin 180 mg/kg/day), harvest Day 3), 2.3 ± 0.4 log 10; in series [18] (Experiment 3: 250 mg/kg/day i.p. from Day -1 (ribavirin 90 mg/kg/day), harvest Day 3), 2.2 ± 1.5 log 10. In addition, the “Overall Mean Titer” value in series [18] (three experiments) is 2.53 ± 0.73 log 10. Besides, the “reduction of overall mean viral titer” value in series [18] (three experiments) is recorded as 2.5 logs. In addition, the “animals with no detectable virus” value in [18] (three experiments combined) is recorded as 1 out of 12.
